# Measured values taken from patent US20220232831A1, “NOVEL NON-CODING HETEROCYCLIC AMINO ACIDS (NCHAA) AND THEIR USE AS HERBICIDES” (Fortephest Ltd., priority 2019, published 2022).
# What was measured:
# [1] = tested on: Romaine lettuce (Lactuca sativa L.) plants; assay: Post-emergency herbicidal activity on Romaine lettuce plants; assay type: in vivo; conditions: Romaine lettuce at stage 2 to 3 leaves; compound in 0.1% Silwet, up to 0.5%; visual evaluation vs control plants
# Description: The tests were performed on Romaine lettuce (Lactuca sativa L.) plants at the stage 2 to 3 leaves. The plants were grown on 300 well trays packed with soil, well dimensions 2×2×5 cm. Each compound was dissolved in 0.1% water solution of agronomically acceptable surfactant Silwet to final concentrations ranging from 0.0% (Control) to 0.5%. Two weeks after the treatment the herbicidal effects of the respective test material were visually evaluated by a comparison with the control plants. In addition, the aboveground part of the plant was neatly cut and weighed (wet weight). Each test was performed on 20 to 40 plants. The degree of growth inhibition and damage was evaluated according to the parameters in Table 2. Plant development at 7, 14, and 21 DAA (days after application) were evaluated on a scale of 0 to 100, in which score 0 represents dead plants and score 100 represents healthy plants according to plant vigor, height, and leaf color. Each test included 20 to 40 plants.
# [2] = tested on: Seeds of Lettuce R. (Super-Jericho); assay: Filter paper bioassay with lettuce seeds (germination and early plant development); assay type: in vivo; conditions: lettuce seeds on filter paper; 1, 0.1, 0.01, 0.001 mM; radicle and shoots assessed after 6 days
# Description: Seeds of Lettuce R. (Super-Jericho, non-sterilized) were obtained from Ben Shahar Moshe Ltd., 99% purity.
# Filter Paper Bioassays with Lettuce Seeds:
# The protocol is following Bertin et al. 2009 and Movellan et al. 2014 with specified modifications as described below.
# Seeds were placed on Whatman no. 1 filter paper (Whatman, Middlesex, U.K.) in Petri dishes (10 seeds per plate) supplemented with 2.0 ml of water (Control) or with a solution comprising 1 mM, 0.1 mM, 0.01 mM and 0.001 mM of test material. Petri dishes with seeds were placed in a tray at an angle of 45°. The trays were kept in dark for 48 hours and then transferred to the growth chamber (22° C., 0.045 mmol×m−2×s−1 photosynthetic photon flux density; 6/18 dark/light cycle) for additional 4 days. Each experiment was performed at least in two repeats. The development of radicle and shoots of experimental and control plants were visually assessed 6 days after the beginning of the test to determine Minimal Effective Concentration (MEC) of test material. In the context of the invention, MEC is defined as the lowest concentration level of a test material that caused deviation (absence of germination or malformation of radicle and shoots) from the plant's development in the Control group.
Compound,post-emergency herbicidal activity (Activity Index: plant's development vs Control) [1],"Minimal Effective Concentration (MEC) as activity score, seeds germination & early plants development [2]"
NC(Cc1cc(Br)sc1Br)C(=O)O (centres unmarked) [Code 552],Maximal (Less than 15),Moderate (1 mM)
NC(Cc1csc([N+](=O)[O-])c1)C(=O)O (centres unmarked) [Code 553],Weak (More than 75),Weak (More than 1 mM)
CCOCCOC(=O)C(Cc1nc(Cl)sc1Cl)NC(C)=O (centres unmarked) [Code 555],Maximal (Less than 15),Strong (0.1 mM)
NC(Cc1csc(C(F)(F)F)c1)C(=O)O (centres unmarked) [Code 556],Maximal (Less than 15),Strong (0.1 mM)
N[C@@H](Cn1oc(=O)[nH]c1=O)C(=O)O [Code 557],Weak (More than 75),Weak (More than 1 mM)
NC(CNS(=O)(=O)c1cc(Br)sc1Br)C(=O)O (centres unmarked) [Code 558],Very Strong (From 15 to 25),Maximal (0.01 mM and less)
NC(CC1CCS(=O)(=O)C1)C(=O)O (centres unmarked) [Code 561],Weak (More than 75),Weak (More than 1 mM)
NC(CC1CCSC1)C(=O)O (centres unmarked) [Code 562],Weak (More than 75),Weak (More than 1 mM)
NC(CP(=O)(O)O)c1ccsc1 (centres unmarked) [Code 563],Weak (More than 75),Weak (More than 1 mM)
CC1=CC(CC(N)C(=O)O)=C(C)S1(=O)=O (centres unmarked) [Code 564],Weak (More than 75),Weak (More than 1 mM)
O=C1C=C(CC(NP(=O)(O)O)C(=O)O)C(=O)S1 (centres unmarked) [Code 565],Weak (More than 75),Strong (0.1 mM)
NC(Cc1cscc1C(F)(F)F)C(=O)O (centres unmarked) [Code 566],Maximal (Less than 15),Strong (0.1 mM)
CCOC(=O)C(Cc1nc(Cl)sc1Cl)NC(C)=O (centres unmarked) [Code 567],Maximal (Less than 15),Weak (More than 1 mM)
CCOC(=O)C(N)Cc1cc(Cl)sc1Cl (centres unmarked) [Code 569],Maximal (Less than 15),Strong (0.1 mM)
COCCOCCOC(=O)C(N)Cc1ccsc1 (centres unmarked) [Code 570],Very Strong (From 15 to 25),Maximal (0.01 mM and less)
CCOC(=O)C(Cc1ccsc1)NC(C)=O (centres unmarked) [Code 571],Very Strong (From 15 to 25),Strong (0.1 mM)
CCOC(=O)C(Cc1cc(Cl)sc1Cl)NC(C)=O (centres unmarked) [Code 573],Maximal (Less than 15),Strong (0.1 mM)
CCOC(=O)C(Cc1cc(Cl)oc1Cl)NC(C)=O (centres unmarked) [Code 574],Moderate (From 50 to 75),Strong (0.1 mM)
CCCOC(=O)C(N)Cc1cc(Cl)oc1Cl (centres unmarked) [Code 575],Moderate (From 50 to 75),Strong (0.1 mM)
CCOC(=O)C(Cc1csc[n+]1C)NC(C)=O.[Cl-] (centres unmarked) [Code 576],Maximal (Less than 15),Moderate (1 mM)

Compound,post-emergency herbicidal activity (Activity Index: plant's development vs Control) [1],"Minimal Effective Concentration (MEC) as activity score, seeds germination & early plants development [2]"
CCOCCOCCOC(=O)C(Cc1cc(Cl)sc1Cl)NC(C)=O (centres unmarked) [Code 577],Strong (From 25 to 50),Moderate (1 mM)
CCOC(=O)C(N)CNS(=O)(=O)c1cc(Br)sc1Br (centres unmarked) [Code 580],Very Strong (From 15 to 25),Strong (0.1 mM)
CCCCOC(=O)C(Cc1nsc(Cl)n1)NC(C)=O (centres unmarked) [Code 595],Strong (From 25 to 50),Strong (0.1 mM)
NC(Cc1ccnnc1)C(=O)O (centres unmarked) [Code 601],Weak (More than 75),Weak (More than 1 mM)
NC(Cc1ccncc1)C(=O)O (centres unmarked) [Code 602],Moderate (From 50 to 75),Strong (0.1 mM)
Cl.Cl.NC(Cc1cccnc1)C(=O)O (centres unmarked) [Code 603],Strong (From 25 to 50),Strong (0.1 mM)
N[C@@H](Cc1cncc(O)c1)C(=O)O [Code 605],Weak (More than 75),Weak (More than 1 mM)
Cc1cncc(CC(N)C(=O)O)c1 (centres unmarked) [Code 606],Weak (More than 75),Weak (More than 1 mM)
Nc1ccnc(CC(N)C(=O)O)c1 (centres unmarked) [Code 607],Weak (More than 75),Weak (More than 1 mM)
Nc1cc(CC(N)C(=O)O)ccn1 (centres unmarked) [Code 608],Moderate (From 50 to 75),Moderate (1 mM)
Nc1cccc(CC(N)C(=O)O)n1 (centres unmarked) [Code 609],Weak (More than 75),Weak (More than 1 mM)
Nc1cncc(CC(N)C(=O)O)c1 (centres unmarked) [Code 610],Weak (More than 75),Weak (More than 1 mM)
NC(Cc1cncc(S)c1)C(=O)O (centres unmarked) [Code 612],Weak (More than 75),Weak (More than 1 mM)
NC(Cc1ccnc(S)c1)C(=O)O (centres unmarked) [Code 613],Weak (More than 75),Weak (More than 1 mM)
NC(Cc1cncnc1)C(=O)O (centres unmarked) [Code 614],Weak (More than 75),Weak (More than 1 mM)
Nc1cc(Cl)nc(CC(N)C(=O)O)n1 (centres unmarked) [Code 616],Weak (More than 75),Weak (More than 1 mM)
Cl.Cl.NC(Cc1ncccn1)C(=O)O (centres unmarked) [Code 618],Weak (More than 75),Weak (More than 1 mM)
NC(Cc1nccc(O)n1)C(=O)O (centres unmarked) [Code 619],Weak (More than 75),Weak (More than 1 mM)
NC(Cc1c[nH]c(=O)[nH]c1=O)C(=O)O (centres unmarked) [Code 620],Weak (More than 75),Weak (More than 1 mM)
NC(Cc1cnccn1)C(=O)O (centres unmarked) [Code 621],Weak (More than 75),Weak (More than 1 mM)
